According to PubChem BioAssay AID1745844 (Carcinogenic Potency Database (CPDB), 2022):
Calls of active or inactive are those of the source. No rule for the calls is given here.

Tested on: rodent lifetime carcinogenesis bioassay, tumor incidence TD50
Assay: chronic cancer bioassays in animals – CPDB, compiled studies (AID 1745844)

Which results are given for `Nc1ccc(Cc2ccc(N)cc2)cc1`?
TD50 (mouse, strain B6C3F1, females, in drinking water, site: all sites + liver + thyroid gland, lesion: malignant lymphoma, histiocytic type + malignant lymphoma, mixed type + malignant lymphoma, undifferentiated type + malignant, dosed 103 weeks, study length 104 weeks): 32.6 mg/kg/day; TD50 (mouse, strain B6C3F1, females, in drinking water, site: all sites, lesion: malignant lymphoma, histiocytic type + malignant lymphoma, mixed type + malignant lymphoma, undifferentiated type + malignant, dosed 103 weeks, study length 104 weeks): 64.7 mg/kg/day; TD50 (mouse, strain B6C3F1, females, in drinking water, site: any site (literature study), lesion: several types, types named in the paper, dosed 103 weeks, study length 104 weeks): 52.1 mg/kg/day; TD50 (mouse, strain B6C3F1, females, in drinking water, site: liver, lesion: hepatocellular adenoma + hepatocellular carcinoma + neoplastic nodule, dosed 103 weeks, study length 104 weeks): 59.3 mg/kg/day; TD50 (mouse, strain B6C3F1, females, in drinking water, site: liver, lesion: hepatocellular adenoma + hepatocellular carcinoma, dosed 103 weeks, study length 104 weeks): 59.3 mg/kg/day; TD50 (mouse, strain B6C3F1, females, in drinking water, site: liver, lesion: hepatocellular adenoma, dosed 103 weeks, study length 104 weeks): 135 mg/kg/day; TD50 (mouse, strain B6C3F1, females, in drinking water, site: liver, lesion: hepatocellular carcinoma, dosed 103 weeks, study length 104 weeks): 137 mg/kg/day; TD50 (mouse, strain B6C3F1, females, in drinking water, site: lung, lesion: alveolar/bronchiolar adenoma + alveolar/bronchiolar carcinoma, dosed 103 weeks, study length 104 weeks): 268 mg/kg/day; TD50 (mouse, strain B6C3F1, females, in drinking water, site: lung, lesion: alveolar/bronchiolar adenoma, dosed 103 weeks, study length 104 weeks): 327 mg/kg/day; TD50 (mouse, strain B6C3F1, females, in drinking water, site: thyroid gland, lesion: follicular-cell adenoma + follicular-cell carcinoma, dosed 103 weeks, study length 104 weeks): 128 mg/kg/day; TD50 (mouse, strain B6C3F1, females, in drinking water, site: thyroid gland, lesion: follicular-cell adenoma, dosed 103 weeks, study length 104 weeks): 150 mg/kg/day; TD50 (mouse, strain B6C3F1, males, in drinking water, site: adrenal gland + liver + thyroid gland, lesion: pheochromocytoma + hepatocellular carcinoma + follicular-cell adenoma, dosed 103 weeks, study length 104 weeks): 28.7 mg/kg/day; TD50 (mouse, strain B6C3F1, males, in drinking water, site: adrenal gland, lesion: pheochromocytoma, dosed 103 weeks, study length 104 weeks): 70 mg/kg/day; TD50 (mouse, strain B6C3F1, males, in drinking water, site: any site (literature study), lesion: several types, types named in the paper, dosed 103 weeks, study length 104 weeks): 47.4 mg/kg/day; TD50 (mouse, strain B6C3F1, males, in drinking water, site: liver, lesion: hepatocellular adenoma + hepatocellular carcinoma + neoplastic nodule, dosed 103 weeks, study length 104 weeks): 17 mg/kg/day; TD50 (mouse, strain B6C3F1, males, in drinking water, site: liver, lesion: hepatocellular adenoma + hepatocellular carcinoma, dosed 103 weeks, study length 104 weeks): 17 mg/kg/day; TD50 (mouse, strain B6C3F1, males, in drinking water, site: liver, lesion: hepatocellular carcinoma, dosed 103 weeks, study length 104 weeks): 22.3 mg/kg/day; TD50 (mouse, strain B6C3F1, males, in drinking water, site: thyroid gland, lesion: follicular-cell adenoma, dosed 103 weeks, study length 104 weeks): 88.4 mg/kg/day; TD50 (rat, strain Fischer 344, females, in drinking water, site: any site (literature study), lesion: several types, types named in the paper, dosed 103 weeks, study length 105 weeks): 277 mg/kg/day; TD50 (rat, strain Fischer 344, females, in drinking water, site: liver, lesion: hepatocellular adenoma + hepatocellular carcinoma + neoplastic nodule, dosed 103 weeks, study length 105 weeks): 118 mg/kg/day; TD50 (rat, strain Fischer 344, females, in drinking water, site: thyroid gland, lesion: c-cell adenoma + c-cell carcinoma, dosed 103 weeks, study length 105 weeks): 70 mg/kg/day; TD50 (rat, strain Fischer 344, females, in drinking water, site: thyroid gland, lesion: c-cell adenoma + follicular-cell adenoma, dosed 103 weeks, study length 105 weeks): 22 mg/kg/day; TD50 (rat, strain Fischer 344, females, in drinking water, site: thyroid gland, lesion: c-cell adenoma, dosed 103 weeks, study length 105 weeks): 73.7 mg/kg/day; TD50 (rat, strain Fischer 344, females, in drinking water, site: thyroid gland, lesion: follicular-cell adenoma + follicular-cell carcinoma, dosed 103 weeks, study length 105 weeks): 27.2 mg/kg/day; TD50 (rat, strain Fischer 344, females, in drinking water, site: thyroid gland, lesion: follicular-cell adenoma, dosed 103 weeks, study length 105 weeks): 33.5 mg/kg/day; TD50 (rat, strain Fischer 344, males, in drinking water, site: liver + thyroid gland, lesion: neoplastic nodule + follicular-cell carcinoma, dosed 103 weeks, study length 105 weeks): 12.5 mg/kg/day; TD50 (rat, strain Fischer 344, males, in drinking water, site: liver, lesion: hepatocellular adenoma + hepatocellular carcinoma + neoplastic nodule, dosed 103 weeks, study length 105 weeks): 14.1 mg/kg/day; TD50 (rat, strain Fischer 344, males, in drinking water, site: liver, lesion: neoplastic nodule, dosed 103 weeks, study length 105 weeks): 14.3 mg/kg/day; TD50 (rat, strain Fischer 344, males, in drinking water, site: thyroid gland, lesion: follicular-cell adenoma + follicular-cell carcinoma, dosed 103 weeks, study length 105 weeks): 49.5 mg/kg/day; TD50 (rat, strain Fischer 344, males, in drinking water, site: thyroid gland, lesion: follicular-cell carcinoma, dosed 103 weeks, study length 105 weeks): 85.4 mg/kg/day

With `C=CCOc1ccccc1OCC(O)CNC(C)C` (configuration not stated) as the molecule, how does the TD50 (mouse, strain CF-1, females, in feed, site: liver, lesion: carcinoma, dosed 78 weeks, study length 91 weeks) read?
Its TD50 is 2400 mg/kg/day (inactive).

And the carcinogen call (mouse, strain CF-1, females, in feed, site: liver, lesion: one or several types, types not named, dosed 78 weeks, study length 78 weeks)?
Its carcinogen call is “negative (inactive)”.

And the carcinogen call (mouse, strain CF-1, females, in feed, site: lung, lesion: adenoma, dosed 78 weeks, study length 91 weeks)?
Its carcinogen call is “negative (inactive)”.

What about the TD50 (mouse, strain CF-1, females, in feed, site: lung, lesion: carcinoma, dosed 78 weeks, study length 78 weeks) of the same molecule?
Its TD50 is 425 mg/kg/day (inactive).

What about the carcinogen call (mouse, strain CF-1, females, in feed, site: lung, lesion: neurofibrosarcoma, dosed 78 weeks, study length 91 weeks) of the same molecule?
Its carcinogen call is “negative (inactive)”.

And the TD50 (mouse, strain CF-1, males, in feed, site: liver, lesion: carcinoma, dosed 78 weeks, study length 78 weeks)?
The TD50 was 2620 mg/kg/day (inactive).

What about the TD50 (mouse, strain CF-1, males, in feed, site: liver, lesion: parenchymal adenoma, dosed 78 weeks, study length 91 weeks) of the same molecule?
Its TD50 is 2120 mg/kg/day (inactive).

What about the carcinogen call (mouse, strain CF-1, males, in feed, site: lung, lesion: adenoma, dosed 78 weeks, study length 78 weeks) of the same molecule?
The carcinogen call was “negative (inactive)”.

And the carcinogen call (mouse, strain CF-1, males, in feed, site: lung, lesion: adenoma, dosed 78 weeks, study length 91 weeks)?
The carcinogen call was “negative (inactive)”.

What about the carcinogen call (mouse, strain CF-1, males, in feed, site: lung, lesion: carcinoma, dosed 78 weeks, study length 78 weeks) of the same molecule?
Its carcinogen call is “negative (inactive)”.

What about the carcinogen call (rat, strain Charles River CD (Sprague-Dawley), females, in feed, site: liver, lesion: one or several types, types not named, dosed 78 weeks, study length 78 weeks) of the same molecule?
Its carcinogen call is “negative (inactive)”.

And the TD50 (rat, strain Charles River CD (Sprague-Dawley), males, in feed, site: liver, lesion: hepatocellular adenoma, dosed 78 weeks, study length 78 weeks)?
Its TD50 is 1680 mg/kg/day (inactive).
